Reference: ChEMBL document CHEMBL1681651, “A broad spectrum anticancer nucleoside with selective toxicity against human colon cells in vitro” (2011)

Tests used:
Assay type in all cases: functional
[1] = tested on: A498; test: Growth inhibition of human A498 cells assessed as cell growth at 1 uM after 48 hrs by SRB assay; settings: A498, 48 h, read-out: Activity
[2] = tested on: NCI/ADR-RES; test: Growth inhibition of human NCI/ADR-RES cells assessed as cell growth at 1 uM after 48 hrs by SRB assay; settings: read-out: Activity
[3] = tested on: SR; test: Growth inhibition of human SR cells assessed as cell growth at 10 uM after 48 hrs by SRB assay; settings: read-out: Activity
[4] = tested on: HOP-62; test: Growth inhibition of human HOP62 cells after 48 hrs by […] growth inhibition assay; settings: HOP-62, 48 h
[5] = tested on: NCI-H322M; test: Growth inhibition of human NCI-H322M cells after 48 hrs by […] growth inhibition assay
[6] = tested on: Malme-3M; test: Growth inhibition of human MALME-3M cells after 48 hrs by […] growth inhibition assay
[7] = tested on: M14; test: Growth inhibition of human M14 cells after 48 hrs by […] growth inhibition assay; settings: M14, 48 h
[8] = tested on: SF-295; test: Growth inhibition of human SF295 cells after 48 hrs by […] growth inhibition assay; settings: SF-295, 48 h
[9] = tested on: SNB-75; test: Growth inhibition of human SNB75 cells after 48 hrs by […] growth inhibition assay; settings: SNB-75, 48 h
[10] = tested on: OVCAR-5; test: Growth inhibition of human OVCAR5 cells after 48 hrs by […] growth inhibition assay; settings: OVCAR-5, 48 h
[11] = tested on: OVCAR-8; test: Growth inhibition of human OVCAR8 cells after 48 hrs by […] growth inhibition assay; settings: OVCAR-8, 48 h
[12] = tested on: SK-OV-3; test: Growth inhibition of human SKOV3 cells after 48 hrs by […] growth inhibition assay; settings: SK-OV-3, 48 h
[13] = tested on: MDA-MB-468; test: Growth inhibition of human MDA-MB-468 cells after 48 hrs by […] growth inhibition assay; settings: MDA-MB-468, 48 h, read-out: LC50 (the source's name)
[14] = tested on: A549; test: Growth inhibition of human A549 cells assessed as cell growth at 0.1 uM after 48 hrs by SRB assay; settings: A549, 48 h, read-out: Activity
[15] = tested on: IGROV-1; test: Growth inhibition of human IGROV1 cells assessed as cell growth at 0.1 uM after 48 hrs by SRB assay; settings: IGROV-1, 48 h, read-out: Activity
[16] = tested on: OVCAR-3; test: Growth inhibition of human OVCAR3 cells assessed as cell growth at 10 uM after 48 hrs by SRB assay; settings: OVCAR-3, 48 h, read-out: Activity
[17] = tested on: MDA-MB-231; test: Growth inhibition of human MDA-MB-231 cells assessed as cell growth at 10 uM after 48 hrs by SRB assay; settings: MDA-MB-231, 48 h, read-out: Activity
[18] = tested on: HCT-15; test: Growth inhibition of human HCT15 cells assessed as cell growth at 100 uM after 48 hrs by SRB assay; settings: HCT-15, 48 h, read-out: Activity
[19] = tested on: SNB-19; test: Growth inhibition of human SNB19 cells assessed as cell growth at 100 uM after 48 hrs by SRB assay; settings: SNB-19, 48 h, read-out: Activity
[20] = tested on: U-251; test: Growth inhibition of human U251 cells assessed as cell growth at 100 uM after 48 hrs by SRB assay; settings: U-251, 48 h, read-out: Activity
[21] = tested on: OVCAR-5; test: Growth inhibition of human OVCAR5 cells assessed as cell growth at 100 uM after 48 hrs by SRB assay; settings: OVCAR-5, 48 h, read-out: Activity
[22] = tested on: MDA-MB-435; test: Growth inhibition of human MDA-MB-435 cells assessed as cell growth at 100 uM after 48 hrs by SRB assay; settings: MDA-MB-435, 48 h, read-out: Activity
[23] = tested on: HCC 2998; test: Growth inhibition of human HCC2998 cells assessed as cell growth at 1 mM after 48 hrs by SRB assay; settings: HCC 2998, 48 h, read-out: Activity
[24] = tested on: SK-MEL-5; test: Growth inhibition of human SK-MEL-5 cells assessed as cell growth at 1 mM after 48 hrs by SRB assay; settings: SK-MEL-5, 48 h, read-out: Activity
[25] = tested on: UO-31; test: Growth inhibition of human UO31 cells assessed as cell growth at 1 mM after 48 hrs by SRB assay; settings: UO-31, 48 h, read-out: Activity
[26] = tested on: CCRF-CEM; test: Growth inhibition of human CCRF-CEM cells assessed as cell growth at 1 uM after 48 hrs by SRB assay; settings: read-out: Activity
[27] = tested on: NCI-H460; test: Growth inhibition of human NCI-H460 cells assessed as cell growth at 1 uM after 48 hrs by SRB assay; settings: NCI-H460, 48 h, read-out: Activity
[28] = tested on: HT-29; test: Growth inhibition of human HT-29 cells assessed as cell growth at 1 uM after 48 hrs by SRB assay; settings: HT-29, 48 h, read-out: Activity
[29] = tested on: M14; test: Growth inhibition of human M14 cells assessed as cell growth at 1 uM after 48 hrs by SRB assay; settings: M14, 48 h, read-out: Activity
[30] = read-out: LC50 (the source's name)
[31] = read-out: pLC50 (the source's name) (converted)

SMILES: CNC(=O)NC[C@H]1O[C@@H](n2cnc3c(NC(=O)Nc4ccccc4)ncnc32)[C@H](O[Si](C)(C)C(C)(C)C)[C@@H]1CC(=O)N(C)OC
- growth at 1 µM [1]: 96%
- growth at 1 µM [2]: 109%
- growth at 10 µM [3]: 62%
- GI50 ([4]; read-out: GI50): 24.9 µM
- CC50 [4, 30]: > 100 µM
- TGI ([4]; read-out: TGI): > 100 µM
- GI50 ([4]; read-out: pGI50 (converted)): 25.1 µM
- CC50 [4, 31]: > 100 µM
- TGI ([4]; read-out: pTGI (converted)): > 100 µM
- GI50 ([5]; read-out: GI50): > 100 µM
- CC50 [5, 30]: > 100 µM
- TGI ([5]; read-out: TGI): > 100 µM
- GI50 ([5]; read-out: pGI50 (converted)): > 100 µM
- CC50 [5, 31]: > 100 µM
- TGI ([5]; read-out: pTGI): > 100 µM
- GI50 ([6]; read-out: GI50): 11.4 µM
- LC50 (concentration killing 50% of cells) ([6]; read-out: LC50): > 100 µM
- TGI ([6]; read-out: TGI): > 100 µM
- GI50 ([6]; read-out: pGI50 (converted)): 11.5 µM
- LC50 (concentration killing 50% of cells) ([6]; read-out: pLC50 (converted)): > 100 µM
- TGI ([6]; read-out: pTGI (converted)): > 100 µM
- GI50 ([7]; read-out: GI50): 15.2 µM
- CC50 [7, 30]: > 100 µM
- TGI ([7]; read-out: TGI): > 100 µM
- GI50 ([7]; read-out: pGI50 (converted)): 15.1 µM
- CC50 [7, 31]: > 100 µM
- TGI ([7]; read-out: pTGI (converted)): > 100 µM
- GI50 ([8]; read-out: GI50): 9.09 µM
- LC50 ([8]; read-out: LC50): 16.4 µM
- TGI ([8]; read-out: TGI): > 100 µM
- GI50 ([8]; read-out: pGI50 (converted)): 9.12 µM
- LC50 ([8]; read-out: pLC50 (converted)): > 100 µM
- TGI ([8]; read-out: pTGI (converted)): > 100 µM
- GI50 ([9]; read-out: GI50): 12.7 µM
- CC50 [9, 30]: > 100 µM
- TGI ([9]; read-out: TGI): > 100 µM
- GI50 ([9]; read-out: pGI50 (converted)): 12.9 µM
- CC50 [9, 31]: > 100 µM
- TGI ([9]; read-out: pTGI (converted)): > 100 µM
- GI50 ([10]; read-out: GI50): 38.2 µM
- CC50 [10, 30]: > 100 µM
- TGI ([10]; read-out: TGI): > 100 µM
- GI50 ([10]; read-out: pGI50 (converted)): 38 µM
- CC50 [10, 31]: > 100 µM
- TGI ([10]; read-out: pTGI (converted)): > 100 µM
- GI50 ([11]; read-out: GI50): 9.02 µM
- CC50 [11, 30]: > 100 µM
- TGI ([11]; read-out: TGI): > 100 µM
- GI50 ([11]; read-out: pGI50 (converted)): 9.12 µM
- CC50 [11, 31]: > 100 µM
- TGI ([11]; read-out: pTGI (converted)): > 100 µM
- GI50 ([12]; read-out: GI50): 52.7 µM
- CC50 [12, 30]: > 100 µM
- TGI ([12]; read-out: TGI): > 100 µM
- GI50 ([12]; read-out: pGI50 (converted)): 52.5 µM
- CC50 [12, 31]: > 100 µM
- TGI ([12]; read-out: pTGI): > 100 µM
- CC50 [13]: > 100 µM
- growth at 0.1 µM [14]: 97%
- growth at 0.1 µM [15]: 89%
- growth at 10 µM [16]: 100%
- growth at 10 µM [17]: 94%
- growth at 100 µM [18]: 40%
- growth at 100 µM [19]: 61%
- growth at 100 µM [20]: 37%
- growth at 100 µM [21]: 71%
- growth at 100 µM [22]: 51%
- growth at 1000 µM [23]: 33%
- growth at 1000 µM [24]: 11%
- growth at 1000 µM [25]: 32%
- growth at 1 µM [26]: 100%
- growth at 1 µM [27]: 93%
- growth at 1 µM [28]: 107%
- growth at 1 µM [29]: 98%
